In patent US20190053492A1, “SUBSTITUTED PYRIDINE COMPOUNDS AS PESTICIDES” (Bayer CropScience Aktiengesellschaft, priority 2016, published 2019):
Like-named read-outs stand apart in the source and are kept apart here.

What was measured:
[1] = log P by HPLC on reversed-phase column (C 18), EEC Directive 79/831 Annex V.A8; format: physicochemical; settings: 55° C.; for chromatographic logP: reversed-phase HPLC column (C 18)
Protocol: Temperature: 55° C. […] Called log P (HCOOH) in the table. […] Called log P (neutral) in the table.

Ctenocephalides felis = Ctenocephalides felis oral test; format: in vivo; settings: Ctenocephalides felis, po, 48 h; application rate 100 ppm in citrated cattle blood, after 2 days, adult cat fleas; read-out: efficacy (kill in %)
Method in brief: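 Kill (%) was recorded at 2 days. Compound, dissolved in DMSO and diluted into citrated cattle blood, was offered to roughly 20 unfed adult C. felis through parafilm.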

Meloidogyne incognita = Meloidogyne incognita test; format: in vivo; settings: application rate 20 ppm, after 14 days, lettuce
Protocol: Meloidogyne incognita Test Solvent: 125.0 parts by weight of acetone To produce a suitable active ingredient formulation, 1 part by weight of active ingredient is mixed with the stated amount of solvent and the concentrate is diluted with water to the desired concentration. Vessels are filled with sand, active ingredient solution, an egg/larvae suspension of the southern root-knot nematode (Meloidogyne incognita) and lettuce seeds. The lettuce seeds germinate and the plants develop. The galls develop on the roots. After 14 days, the nematicidal efficacy in % is determined by the formation of galls. 100% means that no galls were found; 0% means that the number of galls on the treated plants corresponds to the untreated control.

Spodoptera frugiperda = Spodoptera frugiperda spray test; format: in vivo; settings: Spodoptera frugiperda, foliar, 168 h, after 7 days, maize leaf discs, read-out: efficacy (caterpillars killed)
Method in brief: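 Efficacy in % was scored at 7 days against armyworm caterpillars placed on dried, compound-sprayed Zea mays leaf discs. Compound was dissolved in acetone/dimethylformamide and diluted in water with 1000 ppm alkylaryl polyglycol ether. 100% means all caterpillars were killed.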

Myzus persicae = Myzus persicae spray test; format: in vivo; settings: application rate 500 g/ha, after 6 days, Chinese cabbage leaf discs
Protocol: Myzus persicae—Spray Test
Solvent: 78 parts by weight of acetone • • 1.5 parts by weight of dimethylformamide
Emulsifier: alkylaryl polyglycol ether
To produce a suitable active ingredient formulation, 1 part by weight of active ingredient is dissolved with the specified parts by weight of solvent and made up with water containing an emulsifier concentration of 1000 ppm until the desired concentration is attained. To produce further test concentrations, the formulation is diluted with emulsifier-containing water.
Discs of Chinese cabbage leaves (Brassica pekinensis) infested by all stages of the green peach aphid (Myzus persicae) are sprayed with an active ingredient formulation of the desired concentration.
After 6 days, the efficacy in % is determined. 100% means that all the aphids have been killed; 0% means that no aphids have been killed.

Phaedon cochleariae = Phaedon cochleariae spray test; format: in vivo; settings: Phaedon cochleariae, foliar, 168 h; application rate 500 g/ha, after 7 days, Chinese cabbage leaf discs; read-out: efficacy (beetle larvae killed)
Method in brief: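 Larval kill read at day 7 as percent, where 100% means every larva dead and 0% none; larvae were placed on dried Brassica pekinensis leaf discs previously sprayed with the formulation (acetone/dimethylformamide solvent, alkylaryl polyglycol ether emulsifier, water).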

LOGP_HCOOH ([1]; log P (HCOOH), acidic range pH 2.7, 0.1% aqueous formic acid and acetonitrile, reversed-phase column (C 18)): 4.27 | LOGP_NEUTRAL ([1]; log P, neutral range, HPLC on reversed-phase column (C 18)): 4.18 | chromatographic logP ([1]; pH 2.7, LC-MS acidic range, pH 2.7, 0.1% formic acid/acetonitrile, read-out: log P (acidic) / log P (HCOOH)): 4.27 | chromatographic logP ([1]; pH 7.8, LC-MS neutral range, pH 7.8, ammonium hydrogencarbonate/acetonitrile, read-out: log P (neutral)): 4.18
SMILES: N#Cc1ccc(CNC(=O)c2cc(-c3ccc(C(F)(F)F)cc3)cc(N(C(=O)C3CC3)C(=O)C3CC3)n2)cc1F [Example I-028, 6-[Bis(cyclopropylcarbonyl)amino]-N-(4-cyano-3-fluorobenzyl)-4-[4-(trifluoromethyl)phenyl]pyridine-2-carboxamide]
pest or weed control at 100 ppm (Ctenocephalides felis): 100% | nematicidal efficacy (formation of galls) (Meloidogyne incognita): 90% | pest or weed control at 100 g/ha (Spodoptera frugiperda; application rate 100 g/ha): 83% | pest or weed control at 500 g/ha (Spodoptera frugiperda; application rate 500 g/ha): 100% | efficacy (aphids killed) (Myzus persicae): 90% | pest or weed control at 500 g/ha (Phaedon cochleariae): 100%
